Data on 34 compounds can be found in the METLIN SMRT retention time set (Domingo-Almenara et al. 2019).

The structures appear in SMILES notation.

The data set in a line: gradient 5% acetonitrile 3 min, to 50% in 2 min, to 85% in 15 min, held 3 min, 100 µL/min. The note with it: column: Zorbax Extend-C18 2.1 x 50 mm; eluents: water / acetonitrile, 0.1% formic acid. In a few lines: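 Retention time was recorded from adduct peaks, which were picked computationally and each inspected manually. Pure standards ran in mixtures of ~100 molecules on HPLC coupled to a quadrupole time-of-flight mass spectrometer, in positive and negative ionization mode, through a Zorbax Extend-C18 column (2.1 × 50 mm, 1.8 μm) at 100 μL/min. Eluents were water and acetonitrile, each with 0.1% formic acid.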
In the case of `CN1CCc2[nH]cnc2C12CCN(C(=O)Nc1ccc(Cl)cc1F)C2` (centres undefined), the RP-LC retention time was found to be 567 s. The figure for `Cc1ccc2c(c1)N(C(=O)Cn1nc3c4ccccc4ncn3c1=O)CCO2` is 730 s; for `CCOC(=O)C1CCN(CC(=O)Nc2oc3ccccc3c(=O)c2-c2ccccc2)CC1` it is 586 s. The same measure for `CCCNC(=O)C1CCN(c2ccc(SCC(=O)Nc3cc(F)ccc3F)nn2)CC1`: 670 s; for `COCCn1cc2c3c(cccc31)CN(C(=O)NCc1ccc(OC)cc1)CC2`: 822 s. Consider `COc1ccc(NC(=O)NCCc2nc3cccnc3n2C2CCCC2)cc1OC`, for which the RP-LC retention time was 647 s. The same measure for `CCn1c(=O)n(CC)c2cc(S(=O)(=O)C3CCCCC3)c(NC(C)=O)cc21`: 791 s. `CCCCOc1ccc(-c2nc3ncccn3c2NC2CCCCC2)cc1` came in with an RP-LC retention time of 957 s. The figure for `COc1ccc(Cl)cc1NC(=O)CN1C(=O)NC2(CCCCC2)C1=O` is 831 s. The same measure for `COc1ccc(-c2noc(-c3ccc(=O)n(Cc4ccccn4)c3)n2)cc1OC`: 743 s; for `Cc1ccc2cc(CCC(=O)NCCc3ccccn3)c(=O)[nH]c2c1`: 596 s; for `CN(C)CCNCc1ccc(-c2ccc(Cl)cc2Cl)o1`: 609 s.

`O=C(NC1(c2nc(C3CC3)no2)CCCCC1)c1cc(-c2ccc(F)cc2)n[nH]1` showed an RP-LC retention time of 905 s.

Consider `O=C(Nc1cccc(F)c1)C1CCN(C(=O)c2ncn3c2COC(c2ccc(F)cc2)C3)CC1` (centres undefined), for which the RP-LC retention time was 832 s. The same measure for `COCCN1C(=O)c2cc(-c3ccccc3)nn2CC1(C)C(=O)NCc1ccccc1` (centres undefined): 842 s.

`CN(CC1CCOC1)S(=O)(=O)Cc1cccc(Cl)c1` (centres undefined): the RP-LC retention time turned out to be 804 s. The figure for `CCn1cc(C(=O)Nc2cc(Cl)ccc2C)c2cccnc21` is 922 s; for `CN(C)CCCNC(=O)C1CCN(c2nc3ccc(-c4cccnc4)nc3s2)CC1` it is 543 s; for `COc1cccc(NC(=O)N2CCN(c3cnn4c(C)nnc4c3)CC2)c1` it is 616 s.

`Cc1ccc(-c2nc(-c3cccc(-c4ccnn4C)c3)no2)cc1` gave an RP-LC retention time of 1210 s. The figure for `COc1ccc(NC(=O)Cn2nc(C(=O)N3CCCCC3)c3ccccc32)cc1OC` is 756 s; for `COc1ccc(CNC(=O)c2nc3ccccn3c2-c2ccsc2)cc1` it is 810 s; for `Cc1cccc(CN2C[C@@H]3C(=O)N(Cc4ccc5c(c4)OCO5)C(=O)[C@@H]3C2)c1` it is 734 s. The same measure for `COCCC(=O)N1CCN(c2nc(CN3CCOCC3)cs2)CC1`: 686 s; for `Cc1nc(N2CCN(c3ccccn3)CC2)nc2c1C(=O)CCC2`: 583 s; for `O=c1nccc(SCc2ccc(Cl)cc2Cl)[nH]1`: 842 s. The figure for `CCc1ccc(Oc2cc(N3CCC(C(=O)NCc4ccc(OC)cc4)CC3)ncn2)cc1` is 988 s. In the case of `O=S(=O)(NCc1ccccc1Cl)c1c[nH]c2ncccc12`, the RP-LC retention time is 742 s. The figure for `Cc1ccc2c(c1)OCC(=O)N2Cc1nc(-c2cccc(Br)c2)no1` is 1180 s. `CCCn1ccc2sc(C)c(C(=O)O)c2c1=O`: the RP-LC retention time was found to be 774 s. The same measure for `O=C(NCCCn1ncccc1=O)c1cccc(-n2ccc3ccccc32)c1`: 770 s; for `Cc1ccc(CCC(=O)Nc2c(C)cccc2C(=O)O)o1`: 726 s.

In turn, `CCc1nccn1Cc1nc(-c2ccc(C(F)(F)F)cc2)no1` registered an RP-LC retention time of 700 s. The same measure for `O=C(Nc1nc2c(s1)CCCC2C(=O)NCc1ccco1)c1ccc2c(c1)OCO2` (centres undefined): 789 s.
